According to US6004952A, “Micacocidin derivatives” (Shinogi & Co., Ltd., priority 1996, dated 1999):
≈ marks a conversion by molar mass, not a printed value. Read-outs that look alike come from different tables or passages of the source.

Tests used:
[1] = test system: M. hyopneumoniae; test: MIC, liquid dilution method, Mycoplasma hyopneumoniae; details: Mesomycoplasma hyopneumoniae
[2] = test system: M. gallisepticum; test: MIC, liquid dilution method, Mycoplasma gallisepticum; details: Mycoplasmoides gallisepticum
[3] = test system: mice spleen cells; test: Suppression of reaction of mice spleen cells to lypopolysaccaride (LPS), in vitro (MTT); type: cell-based, BDF1 mice
Method: (§1) To each well of 96 well microtiter plate were added 5×10^5 spleen cells of BDF1 mice suspended in 0.1 ml of RPMI 1640 medium supplemented with 10% bovine fetus serum (supplemented with 2 mM sodium hydrogen carbonate, 50 Units/ml of penicillin, 50 μg/ml of streptomycin, and 5×10^-5 M of 2-mercaptoethanol), and then, 5 μg/ml of Concanavalin A (Con A) or 10 μg/ml of lypopolysaccaride (LPS) and various concentrations of test substance, of which final volume was adjusted to 0.2 ml. Test substances were dissolved in dimethylsulfoxide (DMSO), diluted with RPMI 1640 stated above, and added to the wells so that final concentration of the substances becomes less than 10000 ng/ml. The 96-well microtiter plates were cultured at 37° C. for 3 days in an incubator which was maintained at the humidity of 100%, 5% of carbon dioxide and 95% of air. After cultivation is completed, […] of 6 mg/ml solution of MTT {3-(4,5-dimethylthiazol-2yl)-2,5 diphenyltetrazoliumbromide} (Sigma) is added to each well, which is cultured at 37° C. for […] under the same conditions. After cultivation is completed, formazan formed is dissolved by adding 50 μl of a solution of 20% dodecyl sodium sulfonate (SDS) in 0.02N hydrochloric acid and kept standing at 37° C. for 24 hours. The absorbance (OD) of the formazan which was produced in proportion to the number of alive cells, was determined by using immunoreader equipped with 570 nm filter (see The Journal of Immunological Methods, Vol.65, 55-63, 1983).
(§2) Cell growth inhibition rate and IC50 value were calculated according to the correlation between the concentration and the absorbance for each substance.

[4] = Cytotoxicity to primary chicken kidney culture cells; type: cell-based; details: primary chicken kidney cells
[5] = test system: Eimeria tenella; test: Growth inhibition activities to avian coccidium in primary chicken kidney cells; type: cell-based; details: Eimeria tenella; more than 80% of suppression rate regarded as effective; read-out: Effective dose (growth inhibition)
Method: The kidneys of SPF new born chicken was sterilely removed, which was treated with trypsin and the resultant primary kidney cells were cultured in 24-well plate. Monolayer culture after cultured for 3 days was treated simultaneously with compounds adjusted to predetermined concentration and sporozoit obtained by artificial excystation, which was cultured a 40° C. Premature and mature schizonts were observed under microscope, and the growth inhibition activities (suppression rate) for each treatment group were calculated at a proportion of the number of schizonts for the sporozoit-inoculated, compound-untreated control group (100%).

[6] = test system: M. pneumoniae; test: MIC, liquid dilution method, Mycoplasma pneumoniae; details: Mycoplasmoides pneumoniae
[7] = test system: mice spleen cells; test: Suppression of reaction of mice spleen cells to Concanavalin A, in vitro (MTT); type: cell-based, BDF1 mice
Method: as §1, §2

[8] = test system: Serpulina hyodysenteriae; test: MIC, agar dilution method, anaerobic, Serpulina hyodysenteriae; type: cell-based, S. hyodysenteriae ATCC 27164
[9] = test system: Mycoplasma; test: MIC to Mycoplasmas (summary in words); type: cell-based
[10] = test system: Clostridium perfringens; test: microbe, parasite or virus in culture; type: cell-based, C. perfringens ATCC 13124
[11] = test system: Candida albicans; test: Antifungal activity, micro-liquid dilution method, Candida albicans; type: cell-based, Candida albicans strain Ca-15; details: Candida albicans, 24 h, 30° C., read-out: Antifungal activities: IC50
Method: (§3) Antifungal activities of the compounds to Candida albicans (strain Ca-15) and Asperilhm fumigatus (strain MA), representative pathogenic fungi, were determined by micro-liquid dilution method using 96-well microplates. A fungal suspension stored under freezing was adjusted to 1×1 O^5 CFU/ml by medium, of which 100 μl portions were charged into each well. The compound of the present invention was dissolved in dimethylsulfoxide (DMSO). Using the resultant solution, 2-fold dilution series were prepared together with the fungal suspension charged into the wells. YNB medium and RPMI medium were used. After cultured for 24 hours at 30° C., evaluation was performed by detecting the turbidity (wave length: 595 nm) using microplate reader.

[12] = test system: Aspergillus fumigatus; test: Antifungal activity, micro-liquid dilution method, Aspergillus fumigatus; type: cell-based, Aspergillus fumigatus strain MA; details: Aspergillus fumigatus, 24 h, 30° C., read-out: Antifungal activities: IC50
Method: as §3

Compound	MIC [1]	MIC [2]	MCC [4]	minimal effective concentration [5]	MIC [6]	further results
CCCCCc1cccc(OCOC)c1C1=NC(C2SCC(C(O)C(C)(C)C3=NC(C)(C(=O)OCOC)CS3)N2C)CS1 (centres unmarked) [Compound 18]	0.05 µg/mL (≈ 0.0765 µM)	1.56 µg/mL (≈ 2.39 µM)	> 10 µg/mL	10 µg/mL	0.025 µg/mL (≈ 0.0382 µM)	suppression of the reaction to LPS of spleen cells [3]: suppressed; inhibition at 0.039 µg/mL ([3]; Mus musculus, 72 h, LPS, 39 ng/ml, read-out: Suppression rate): 27.4%; inhibition at 0.078 µg/mL ([3]; Mus musculus, 72 h, LPS, 78 ng/ml, read-out: Suppression rate): 41.5%; inhibition at 0.156 µg/mL ([3]; Mus musculus, 72 h, LPS, 156 ng/ml, read-out: Suppression rate): 74.6%; inhibition at 0.312 µg/mL ([3]; Mus musculus, 72 h, LPS, 312 ng/ml, read-out: Suppression rate): 93.4%; inhibition at 0.625 µg/mL ([3]; Mus musculus, 72 h, LPS, 625 ng/ml, read-out: Suppression rate): 101%; IC50 ([3]; Mus musculus, LPS): 0.084 µg/mL (≈ 0.128 µM); suppression of the reaction to Con A of spleen cells [7]: suppressed; inhibition at 0.039 µg/mL ([7]; Mus musculus, 72 h, Con A, 39 ng/ml, read-out: Suppression rate): 14.7%; inhibition at 0.078 µg/mL ([7]; Mus musculus, 72 h, Con A, 78 ng/ml, read-out: Suppression rate): 25.7%; inhibition at 0.156 µg/mL ([7]; Mus musculus, 72 h, Con A, 156 ng/ml, read-out: Suppression rate): 75.5%; inhibition at 0.312 µg/mL ([7]; Mus musculus, 72 h, Con A, 312 ng/ml, read-out: Suppression rate): 94.9%; inhibition at 0.625 µg/mL ([7]; Mus musculus, 72 h, Con A, 625 ng/ml, read-out: Suppression rate): 98.6%; IC50 ([7]; Mus musculus, Con A): 0.101 µg/mL (≈ 0.154 µM); activity to Serpulina (Treponema) hyodysenteriae [8]: showed the activity; MICs to Mycoplasmas [9]: low MICs; activity to Clostridium perflingens [10]: showed the activity
CCCCCc1cccc(OCc2ccc(Cl)cc2)c1C1=NC(C2SCC(C(OCc3ccc(Cl)cc3)C(C)(C)C3=NC(C)(C(=O)OCc4ccc(Cl)cc4)CS3)N2C)CS1 (centres unmarked) [Compound 21]	–	–	> 10 µg/mL	> 10 µg/mL	–	–
CCCCCc1cccc(O)c1C1=NC(C2SCC(C(O)C(C)(C)C3=NC(C)(C(=O)OCc4ccc(Cl)cc4)CS3)N2C)CS1 (centres unmarked) [Compound 22]	0.1 µg/mL (≈ 0.145 µM)	> 3.13 µg/mL	> 10 µg/mL	2.5 µg/mL	0.39 µg/mL (≈ 0.565 µM)	–
CCCCCc1cccc(O)c1C1=NC(C2SCC(C(O)C(C)(C)C3=NC(C)(C(=O)N(C)O)CS3)N2C)CS1 (centres unmarked) [Compound 25]	–	–	–	–	–	IC50 ([11]; RPMI medium): 6.3 µg/mL (≈ 10.6 µM); IC50 ([11]; YNB medium): 50 µg/mL (≈ 84.1 µM); IC50 ([12]; RPMI medium): 0.2 µg/mL (≈ 0.336 µM); IC50 ([12]; YNB medium): 50 µg/mL (≈ 84.1 µM)
CCCCCc1cccc(O)c1C1=NC(C2SCC(C(O)C(C)(C)C3=NC(C)(C(=O)NC(C)C(=O)OC)CS3)N2C)CS1 (centres unmarked) [Compound 28]	0.1 µg/mL (≈ 0.154 µM)	0.39 µg/mL (≈ 0.599 µM)	> 10 µg/mL	10 µg/mL	0.05 µg/mL (≈ 0.0768 µM)	MICs to Mycoplasmas [9]: low MICs
CCCCCc1cccc(O)c1C1=NC(C2SCC(C(O)C(C)(C)C3=NC(C)(C(=O)NCCO)CS3)N2C)CS1 (centres unmarked) [Compound 30]	0.39 µg/mL (≈ 0.641 µM)	0.78 µg/mL (≈ 1.28 µM)	> 10 µg/mL	2.5 µg/mL	0.2 µg/mL (≈ 0.328 µM)	–
CCCCCc1cccc(O)c1C1=NC(C2SCC(C(O)C(C)(C)C3=NC(C)(C(N)=O)CS3)N2C)CS1 (centres unmarked) [Compound 31]	0.2 µg/mL (≈ 0.354 µM)	0.39 µg/mL (≈ 0.69 µM)	10 µg/mL	–	0.2 µg/mL (≈ 0.354 µM)	–
CCCCCc1cccc(O)c1C1=NC(C2SCC(C(O)C(C)(C)C3=NC(C)(CO)CS3)N2C)CS1 (centres unmarked) [Compound 32]	0.05 µg/mL (≈ 0.0906 µM)	0.39 µg/mL (≈ 0.707 µM)	> 10 µg/mL	10 µg/mL	0.025 µg/mL (≈ 0.0453 µM)	–
